Among the test systems are UO-31 renal; 786-0 renal; EKVX NSCLC; T-47D breast; NCI-H460 lung; PC-3 prostate; OVCAR-8 ovarian; SNB-75 CNS; CCRF-CEM leukemia; DU-145 prostate.
Common to all, as to assay: inhibition of tumour cell growth, NCI panel, 48 h

The values that follow come from PubChem BioAssay (NCI).

Each structure is given as a SMILES string.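 A five-concentration, 48-hour dose response in 96-well plates underlies each endpoint, interpolated linearly between surrounding concentrations. Here, GI50 denotes the concentration required for 50% inhibition of growth. At the TGI there is no net growth.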 A value given as a limit tells only on which side of the number the result lay.

For `Oc1ccc(O)c(-c2cc(-c3ccccc3)nn2-c2ccccc2)c1`, the GI50 is 38.6 µM in the assay with UO-31 renal; 12.2 µM in the assay with 786-0 renal; 16.9 µM in the assay with EKVX NSCLC; 19.6 µM in the assay with T-47D breast; 24.8 µM with NCI-H460 lung; 16.7 µM in the assay with PC-3 prostate. For the same compound, the GI50 with OVCAR-8 ovarian is 17.2 µM. The TGI is above 100 µM in the assay with UO-31 renal; 25.2 µM in the assay with 786-0 renal; 37.7 µM with EKVX NSCLC; 98.4 µM in the assay with T-47D breast; above 100 µM in the assay on NCI-H460 lung; above 100 µM in the assay with PC-3 prostate. In addition, the TGI in the assay with OVCAR-8 ovarian is 74 µM.
As for `COc1cccc2c1-c1c(c3ccc([N+](=O)[O-])cc3c(=O)n1CCCCl)C2=O`, the GI50 with UO-31 renal is 1.73 µM; in the assay with SNB-75 CNS, 11.6 µM; with 786-0 renal, 6.4 µM; with EKVX NSCLC it was above 50 µM; with T-47D breast, above 50 µM; in the assay with CCRF-CEM leukemia, 1.5 µM. Moreover, the GI50 in the assay on NCI-H460 lung is 0.972 µM; in the assay on PC-3 prostate it was 7.37 µM; with OVCAR-8 ovarian, above 50 µM. The TGI is above 50 µM in the assay on UO-31 renal; 32.3 µM in the assay with SNB-75 CNS; 17.4 µM with 786-0 renal; above 50 µM in the assay on EKVX NSCLC; above 50 µM with T-47D breast; above 50 µM with CCRF-CEM leukemia. Besides, the TGI with NCI-H460 lung, with PC-3 prostate and with OVCAR-8 ovarian was above 50 µM in each case.
As for `CN(C)CCNC(=O)Cn1cc([N+](=O)[O-])c(=O)c2ccccc21`, the TGI in the assay with UO-31 renal, with SNB-75 CNS, in the assay on 786-0 renal, in the assay with T-47D breast, in the assay on CCRF-CEM leukemia and with NCI-H460 lung was above 100 µM throughout. Moreover, the TGI in the assay with DU-145 prostate, in the assay with PC-3 prostate and in the assay on OVCAR-8 ovarian was above 100 µM throughout.
For `CC(=O)c1c(C)n(C)c2c1nnc1ccccc12`, the TGI is 8.11 µM in the assay on UO-31 renal; above 100 µM with 786-0 renal; 50.3 µM with EKVX NSCLC; above 100 µM in the assay with T-47D breast; above 100 µM with CCRF-CEM leukemia; above 100 µM in the assay with NCI-H460 lung. Moreover, the TGI in the assay on DU-145 prostate, in the assay with PC-3 prostate and in the assay on OVCAR-8 ovarian was above 100 µM each time.
Turning to `CC(=O)c1cc2c(cc1Nc1c3ccccc3nc3occ(Cl)c13)OCO2`, the GI50 with UO-31 renal is 1.09 µM; in the assay with 786-0 renal it was 0.291 µM; in the assay with EKVX NSCLC, 0.181 µM; with CCRF-CEM leukemia it was 0.0468 µM; with NCI-H460 lung, 0.27 µM; in the assay on DU-145 prostate, 0.227 µM. The GI50 is 0.0856 µM in the assay with PC-3 prostate and 0.205 µM in the assay on OVCAR-8 ovarian. The TGI with UO-31 renal was above 100 µM; in the assay with 786-0 renal, above 44.3 µM; in the assay on EKVX NSCLC it was above 100 µM; with T-47D breast it was above 100 µM; in the assay with CCRF-CEM leukemia, 0.291 µM; in the assay on NCI-H460 lung, above 40.1 µM. Also, the TGI in the assay with PC-3 prostate is 3.71 µM; in the assay with OVCAR-8 ovarian, 0.766 µM.
For `Cc1cccc(C(=O)/C=C/SC(=NC#N)SCc2ccccc2)c1`, the GI50 in the assay on UO-31 renal was 30.9 µM; with 786-0 renal it was 19.1 µM; in the assay on EKVX NSCLC, 28 µM; with T-47D breast, 21.6 µM; in the assay with CCRF-CEM leukemia, 3.23 µM; in the assay on NCI-H460 lung, 36.5 µM. Also, the GI50 in the assay with DU-145 prostate was 19.7 µM; in the assay on PC-3 prostate, 16.4 µM; in the assay on OVCAR-8 ovarian, 35.6 µM. Besides, the TGI was 89 µM in the assay on UO-31 renal; 40.5 µM in the assay with 786-0 renal; 63.2 µM in the assay on EKVX NSCLC; above 100 µM in the assay on T-47D breast; above 100 µM in the assay on CCRF-CEM leukemia; above 100 µM in the assay with NCI-H460 lung. For the same compound, the TGI in the assay with DU-145 prostate is 46.4 µM; in the assay with PC-3 prostate it was 50.8 µM; in the assay with OVCAR-8 ovarian, above 100 µM.
With `C=CC(C=O)C1(O)CCOC(=O)/C1=C\N` (stereo unspecified), the GI50 in the assay on UO-31 renal, in the assay on 786-0 renal, in the assay on EKVX NSCLC, with T-47D breast, with CCRF-CEM leukemia and in the assay with NCI-H460 lung was above 100 µM in each case. The GI50 in the assay with DU-145 prostate, with PC-3 prostate and in the assay with OVCAR-8 ovarian was above 100 µM each time. The TGI in the assay on UO-31 renal, with 786-0 renal, with EKVX NSCLC, with T-47D breast, in the assay on CCRF-CEM leukemia and in the assay with NCI-H460 lung was above 100 µM throughout. For the same compound, the TGI with DU-145 prostate, in the assay with PC-3 prostate and in the assay on OVCAR-8 ovarian was above 100 µM each time.
As to `CCN1C(NN)=NS(=O)(=O)c2ccccc21`, the TGI in the assay with UO-31 renal, in the assay with 786-0 renal, in the assay on EKVX NSCLC, in the assay on T-47D breast, with CCRF-CEM leukemia and with NCI-H460 lung was above 100 µM throughout. Moreover, the TGI in the assay on DU-145 prostate, in the assay with PC-3 prostate and with OVCAR-8 ovarian was above 100 µM throughout.
